We go through 1 compound from article PMC5218480 (PLoS ONE, 2017).

The test system of this test is MV-4-11 cells. The test is described as follows: Gene expression microarray analysis (Affymetrix PrimeView) and GSEA. The class given is cell-based, human. The arrangement: RFU PODN (11730768_x_at) / Fold change /veh PODN (11730768_x_at) / RFU LINC00158 (11744669_a_at) / Fold change /veh LINC00158 (11744669_a_at) / RFU DUSP10 (11751237_a_at) / Fold change /veh DUSP10 (11751237_a_at) / RFU ID3 (11757404_x_at) / Fold change /veh ID3 (11757404_x_at) / RFU PLEKHG5 (11737974_s_at) / Fold change /veh PLEKHG5 (11737974_s_at) / RFU LRRC4B (11730491_at) / Fold change /veh LRRC4B (11730491_at) / RFU GIMAP4 (11747438_a_at) / Fold change /veh GIMAP4 (11747438_a_at) / RFU KRT8 (11758183_x_at) / Fold change /veh KRT8 (11758183_x_at) / RFU CNN1 (11734310_a_at) / Fold change /veh CNN1 (11734310_a_at) / RFU VPS37D (11726825_at) / Fold change /veh VPS37D (11726825_at) / RFU C10orf10 (11716522_x_at) / Fold change /veh C10orf10 (11716522_x_at) / RFU KIR2DL2 /// KIR2DL4 /// KIR2DL5A /// KIR2DL5B /// KIR2DS1 /// KIR2DS2 /// KIR2DS3 /// KIR2DS4 /// KIR3DL3 /// KIR3DL3 /// KIR3DS1 (11738374_at) / Fold change /veh KIR2DL2 /// KIR2DL4 /// KIR2DL5A /// KIR2DL5B /// KIR2DS1 /// KIR2DS2 /// KIR2DS3 /// KIR2DS4 /// KIR3DL3 /// KIR3DL3 /// KIR3DS1 (11738374_at) / RFU C1QL1 (11718748_at) / Fold change /veh C1QL1 (11718748_at) / RFU TMPRSS4 (11747572_a_at) / Fold change /veh TMPRSS4 (11747572_a_at) / RFU HAMP (11756126_x_at) / Fold change /veh HAMP (11756126_x_at) / RFU RNFT2 (11725882_a_at) / Fold change /veh RNFT2 (11725882_a_at) / RFU NR4A2 (11747474_a_at) / Fold change /veh NR4A2 (11747474_a_at) / RFU ABCC12 (11746883_a_at) / Fold change /veh ABCC12 (11746883_a_at) / RFU TMEM136 (11760407_x_at) / Fold change /veh TMEM136 (11760407_x_at) / RFU CLDN22 /// WWC2 (11732394_at) / Fold change /veh CLDN22 /// WWC2 (11732394_at) / RFU HLA-DPB1 (11760878_x_at) / Fold change /veh HLA-DPB1 (11760878_x_at) / RFU SPINT1 (11716480_a_at) / Fold change /veh SPINT1 (11716480_a_at) / RFU GAP43 (11754022_s_at) / Fold change /veh GAP43 (11754022_s_at) / RFU A4GNT (11735810_at) / Fold change /veh A4GNT (11735810_at) / RFU PRB3 (11715151_x_at) / Fold change /veh PRB3 (11715151_x_at) / RFU TUBB4B (11761932_at) / Fold change /veh TUBB4B (11761932_at) / RFU CAPN14 (11732068_a_at) / Fold change /veh CAPN14 (11732068_a_at) / RFU TMCC2 (11721928_a_at) / Fold change /veh TMCC2 (11721928_a_at) / RFU IRGQ (11745062_a_at) / Fold change /veh IRGQ (11745062_a_at) / RFU FAM174B (11720279_a_at) / Fold change /veh FAM174B (11720279_a_at) / RFU TMPRSS4 (11748680_a_at) / Fold change /veh TMPRSS4 (11748680_a_at) / RFU FAM212B (11763350_a_at) / Fold change /veh FAM212B (11763350_a_at) / RFU PLEKHG5 (11743358_a_at) / Fold change /veh PLEKHG5 (11743358_a_at) / RFU ZSCAN30 (11745921_a_at) / Fold change /veh ZSCAN30 (11745921_a_at) / RFU CMKLR1 (11741424_a_at) / Fold change /veh CMKLR1 (11741424_a_at) / RFU LOC101060620 /// MAPK8IP1 (11723275_at) / Fold change /veh LOC101060620 /// MAPK8IP1 (11723275_at) / RFU SPTSSB (11747773_x_at) / Fold change /veh SPTSSB (11747773_x_at) / RFU PRSS12 (11739890_at) / Fold change /veh PRSS12 (11739890_at) / RFU BIN1 (11741810_x_at) / Fold change /veh BIN1 (11741810_x_at) / RFU WNT11 (11732464_a_at) / Fold change /veh WNT11 (11732464_a_at) / RFU C10orf10 (11716521_a_at) / Fold change /veh C10orf10 (11716521_a_at) / RFU C5orf56 (11738089_at) / Fold change /veh C5orf56 (11738089_at) / RFU CYB561 (11721691_x_at) / Fold change /veh CYB561 (11721691_x_at) / RFU ANKRD19P (11752326_a_at) / Fold change /veh ANKRD19P (11752326_a_at) / RFU OR2T12 /// OR2T33 /// OR2T8 (11738714_s_at) / Fold change /veh OR2T12 /// OR2T33 /// OR2T8 (11738714_s_at) / RFU VCAN (11748164_a_at) / Fold change /veh VCAN (11748164_a_at) / RFU JSRP1 (11732532_at) / Fold change /veh JSRP1 (11732532_at) / RFU KRTAP10-11 (11738290_x_at) / Fold change /veh KRTAP10-11 (11738290_x_at) / RFU MYO3A (11730013_a_at) / Fold change /veh MYO3A (11730013_a_at) / RFU EBF3 (11725865_a_at) / Fold change /veh EBF3 (11725865_a_at) / RFU CAMK2N1 (11719241_x_at) / Fold change /veh CAMK2N1 (11719241_x_at) / RFU C5orf56 (11738088_a_at) / Fold change /veh C5orf56 (11738088_a_at) / RFU OLFML3 (11715873_a_at) / Fold change /veh OLFML3 (11715873_a_at) / RFU LOC100653217 /// NTM (11731650_a_at) / Fold change /veh LOC100653217 /// NTM (11731650_a_at) / RFU MAPK11 (11762145_a_at) / Fold change /veh MAPK11 (11762145_a_at) / RFU FIZ1 (11724087_x_at) / Fold change /veh FIZ1 (11724087_x_at) / RFU OASL (11726364_x_at) / Fold change /veh OASL (11726364_x_at) / RFU SOX15 (11748057_x_at) / Fold change /veh SOX15 (11748057_x_at) / RFU CD79A (11719716_a_at) / Fold change /veh CD79A (11719716_a_at) / RFU HIST1H1D (11736915_at) / Fold change /veh HIST1H1D (11736915_at) / RFU CASKIN2 (11723855_a_at) / Fold change /veh CASKIN2 (11723855_a_at) / RFU LOC730098 (11760151_x_at) / Fold change /veh LOC730098 (11760151_x_at) / RFU OR4N2 (11742367_at) / Fold change /veh OR4N2 (11742367_at) / RFU PRRT2 (11749266_a_at) / Fold change /veh PRRT2 (11749266_a_at) / RFU SNX32 (11753110_a_at) / Fold change /veh SNX32 (11753110_a_at) / RFU CDHR5 (11726645_a_at) / Fold change /veh CDHR5 (11726645_a_at) / RFU RCAN1 (11760418_a_at) / Fold change /veh RCAN1 (11760418_a_at) / RFU FAM167A (11723789_a_at) / Fold change /veh FAM167A (11723789_a_at) / RFU FAM26E (11764081_at) / Fold change /veh FAM26E (11764081_at) / RFU ISYNA1 (11749810_s_at) / Fold change /veh ISYNA1 (11749810_s_at) / RFU ACY1 (11761880_at) / Fold change /veh ACY1 (11761880_at) / RFU 11764098_at / Fold change /veh 11764098_at / RFU SAMD14 (11745864_x_at) / Fold change /veh SAMD14 (11745864_x_at) / RFU NPB (11741838_a_at) / Fold change /veh NPB (11741838_a_at) / RFU TMPRSS6 (11731388_a_at) / Fold change /veh TMPRSS6 (11731388_a_at) / RFU KRTAP10-2 (11738614_at) / Fold change /veh KRTAP10-2 (11738614_at) / RFU ARHGAP8 /// PRR5-ARHGAP8 (11727945_x_at) / Fold change /veh ARHGAP8 /// PRR5-ARHGAP8 (11727945_x_at) / RFU KRTAP5-7 /// NADSYN1 (11734609_at) / Fold change /veh KRTAP5-7 /// NADSYN1 (11734609_at) / RFU RASL12 (11751679_a_at) / Fold change /veh RASL12 (11751679_a_at) / RFU CDKN2B (11736163_a_at) / Fold change /veh CDKN2B (11736163_a_at) / RFU PRF1 (11729649_at) / Fold change /veh PRF1 (11729649_at) / RFU, ZNF638 /// ZNF638-IT1 / Fold change vs veh, ZNF638 /// ZNF638-IT1 / RFU, PANK3 / Fold change vs veh, PANK3 / RFU, SH3YL1 / Fold change vs veh, SH3YL1 / RFU, ZEB2 / Fold change vs veh, ZEB2 / RFU, NRIP1 / Fold change vs veh, NRIP1 / RFU, PTTG1IP / Fold change vs veh, PTTG1IP / RFU, CAPN2 / Fold change vs veh, CAPN2 / RFU, MED14 / Fold change vs veh, MED14 / RFU, SNORA58 / Fold change vs veh, SNORA58 / RFU, C1orf63 / Fold change vs veh, C1orf63 / RFU, LRRFIP1 / Fold change vs veh, LRRFIP1 / RFU, NDUFAF7 / Fold change vs veh, NDUFAF7 / RFU, SLC12A2 / Fold change vs veh, SLC12A2 / RFU, IBTK / Fold change vs veh, IBTK / RFU, ESF1 / Fold change vs veh, ESF1 / Fold change vs veh, TMEM50B / RFU, TAOK1 / Fold change vs veh, TAOK1 / RFU, ACBD3 / Fold change vs veh, ACBD3 / RFU, TMA16 / Fold change vs veh, TMA16 / RFU, RWDD3 / Fold change vs veh, RWDD3 / RFU, BCAT1 / Fold change vs veh, BCAT1 / RFU, EDEM3 / Fold change vs veh, EDEM3 / RFU, TMEM33 / Fold change vs veh, TMEM33 / RFU, WDR75 / Fold change vs veh, WDR75 / RFU, AHCTF1 / Fold change vs veh, AHCTF1 / RFU, TFRC / Fold change vs veh, TFRC / RFU, ZDHHC17 / Fold change vs veh, ZDHHC17 / RFU, NOM1 / Fold change vs veh, NOM1 / RFU, ARL8B / Fold change vs veh, ARL8B / RFU, ZBTB11 / Fold change vs veh, ZBTB11 / RFU, TAMM41 / Fold change vs veh, TAMM41 / RFU, KIAA1704 /// LOC100996395 / Fold change vs veh, KIAA1704 /// LOC100996395 / RFU, ING1 / Fold change vs veh, ING1 / RFU, TRMT61B / Fold change vs veh, TRMT61B / RFU, FUBP3 / Fold change vs veh, FUBP3 / RFU, TP53 / Fold change vs veh, TP53 / RFU, TNKS2 / Fold change vs veh, TNKS2 / RFU, ZFP14 / Fold change vs veh, ZFP14 / RFU, ACTR2 / Fold change vs veh, ACTR2 / RFU, PPP3R1 / Fold change vs veh, PPP3R1 / RFU, PIK3R1 / Fold change vs veh, PIK3R1 / RFU, HNRNPA1 / Fold change vs veh, HNRNPA1 / RFU, RNF170 / Fold change vs veh, RNF170 / RFU, ZNF28 / Fold change vs veh, ZNF28 / RFU, RNGTT / Fold change vs veh, RNGTT / RFU, OGT / Fold change vs veh, OGT / RFU, BRD1 / Fold change vs veh, BRD1 / RFU, MARS / Fold change vs veh, MARS / RFU, ZNF655 / Fold change vs veh, ZNF655 / RFU, FAHD1 / Fold change vs veh, FAHD1 / RFU, BDP1 / Fold change vs veh, BDP1 / RFU, LRRCC1 / Fold change vs veh, LRRCC1 / RFU, ARID1A / Fold change vs veh, ARID1A / RFU, ZNF146 / Fold change vs veh, ZNF146 / RFU, ZNF330 / Fold change vs veh, ZNF330 / RFU, GPN3 / Fold change vs veh, GPN3 / RFU, C9orf123 / Fold change vs veh, C9orf123 / RFU, N4BP2L2 / Fold change vs veh, N4BP2L2 / RFU, ARFIP1 / Fold change vs veh, ARFIP1 / RFU, FAM179B / Fold change vs veh, FAM179B / RFU, BCL10 / Fold change vs veh, BCL10 / RFU, UHRF1BP1L / Fold change vs veh, UHRF1BP1L / RFU, BET1 / Fold change vs veh, BET1 / RFU, CNOT2 / Fold change vs veh, CNOT2 / RFU, ZNF268 / Fold change vs veh, ZNF268 / Fold change vs veh, ZNF507 / RFU, DGCR2 / Fold change vs veh, DGCR2 / RFU, WDSUB1 / Fold change vs veh, WDSUB1 / Fold change vs veh, HSP90B1 /// MIR3652 / RFU, ADSS / Fold change vs veh, ADSS / RFU, GK / Fold change vs veh, GK / RFU, ZNF148 / Fold change vs veh, ZNF148 / RFU, TAF9 / Fold change vs veh, TAF9 / RFU, SLC1A5 / Fold change vs veh, SLC1A5 / RFU, SLMO2 / Fold change vs veh, SLMO2 / RFU, ABCC4 / Fold change vs veh, ABCC4 / RFU, LOC101060439 /// RAP1B / Fold change vs veh, LOC101060439 /// RAP1B / RFU, RFX7 / Fold change vs veh, RFX7 / RFU, GTPBP10 / Fold change vs veh, GTPBP10 / RFU, CNEP1R1 / Fold change vs veh, CNEP1R1 / RFU, BIVM-ERCC5 /// ERCC5 / Fold change vs veh, BIVM-ERCC5 /// ERCC5 / RFU, ILF3 / Fold change vs veh, ILF3 / RFU 11762660_at / Fold change /veh 11762660_at / RFU VCAN (11757783_s_at) / Fold change /veh VCAN (11757783_s_at) / RFU DDX43 (11728927_at) / Fold change /veh DDX43 (11728927_at) / RFU KRT8 (11758188_x_at) / Fold change /veh KRT8 (11758188_x_at) / RFU NKD1 (11759106_at) / Fold change /veh NKD1 (11759106_at) / RFU SRD5A1 (11742802_a_at) / Fold change /veh SRD5A1 (11742802_a_at) / RFU TPSAB1 /// TPSB2 (11721975_s_at) / Fold change /veh TPSAB1 /// TPSB2 (11721975_s_at) / RFU GSTM3 (11746129_a_at) / Fold change /veh GSTM3 (11746129_a_at) / RFU IL23R (11737362_x_at) / Fold change /veh IL23R (11737362_x_at) / RFU TMEM51 (11727254_a_at) / Fold change /veh TMEM51 (11727254_a_at) / RFU PIWIL2 (11732686_x_at) / Fold change /veh PIWIL2 (11732686_x_at) / RFU ORM1 (11744905_x_at) / Fold change /veh ORM1 (11744905_x_at) / RFU CCDC152 (11743942_at) / Fold change /veh CCDC152 (11743942_at) / RFU ECM1 (11717891_a_at) / Fold change /veh ECM1 (11717891_a_at) / RFU IL23R (11748794_a_at) / Fold change /veh IL23R (11748794_a_at) / RFU TNFAIP8L3 (11732012_x_at) / Fold change /veh TNFAIP8L3 (11732012_x_at) / RFU MBOAT4 (11741988_at) / Fold change /veh MBOAT4 (11741988_at) / RFU 11764193_at / Fold change /veh 11764193_at / RFU TMEM53 (11763286_at) / Fold change /veh TMEM53 (11763286_at) / RFU MAGEB2 (11727129_at) / Fold change /veh MAGEB2 (11727129_at) / RFU TMEM200A (11744735_a_at) / Fold change /veh TMEM200A (11744735_a_at) / RFU CCDC152 (11751479_a_at) / Fold change /veh CCDC152 (11751479_a_at) / RFU FAM211A (11726209_a_at) / Fold change /veh FAM211A (11726209_a_at) / RFU RGS16 (11746705_a_at) / Fold change /veh RGS16 (11746705_a_at) / RFU VCAN (11755009_s_at) / Fold change /veh VCAN (11755009_s_at) / RFU RHOB (11743442_s_at) / Fold change /veh RHOB (11743442_s_at) / RFU RGS16 (11720943_a_at) / Fold change /veh RGS16 (11720943_a_at) / RFU RGS16 (11720944_at) / Fold change /veh RGS16 (11720944_at) / RFU, VPS4B / Fold change vs veh, VPS4B / RFU, CREB1 / Fold change vs veh, CREB1 / RFU, DNAJC13 / Fold change vs veh, DNAJC13 / RFU, GNAQ / Fold change vs veh, GNAQ / RFU, CDK5R1 / Fold change vs veh, CDK5R1 / RFU, ZRANB3 / Fold change vs veh, ZRANB3 / RFU, CUL4A / Fold change vs veh, CUL4A / RFU, CCNY / Fold change vs veh, CCNY / RFU, UFL1 / Fold change vs veh, UFL1 / RFU, COG3 / Fold change vs veh, COG3 / RFU, DIAPH2 / Fold change vs veh, DIAPH2 / RFU, SKA2 / Fold change vs veh, SKA2 / RFU, AFF3 / Fold change vs veh, AFF3 / RFU, LMF1 / Fold change vs veh, LMF1 / RFU, IPO11 / Fold change vs veh, IPO11 / RFU, DFFB / Fold change vs veh, DFFB / RFU, FOXP1 / Fold change vs veh, FOXP1 / RFU, CARD8 / Fold change vs veh, CARD8 / RFU, STRN3 / Fold change vs veh, STRN3 / RFU, ADK / Fold change vs veh, ADK / RFU, RASSF2 / Fold change vs veh, RASSF2 / RFU, WIPF1 / Fold change vs veh, WIPF1 / RFU, LARP1B / Fold change vs veh, LARP1B / RFU, RASA1 / Fold change vs veh, RASA1 / RFU, RB1 / Fold change vs veh, RB1 / RFU, PPFIA1 / Fold change vs veh, PPFIA1 / RFU, MAT2A / Fold change vs veh, MAT2A / RFU, CCT5 / Fold change vs veh, CCT5 / RFU, WDR92 / Fold change vs veh, WDR92 / RFU, CUX1 / Fold change vs veh, CUX1 / RFU, TTC7A / Fold change vs veh, TTC7A / RFU, TMEM135 / Fold change vs veh, TMEM135 / RFU, DEPTOR / Fold change vs veh, DEPTOR / RFU, CPM / Fold change vs veh, CPM / RFU, DNAJB6 / Fold change vs veh, DNAJB6 / RFU, CACNA2D3 / Fold change vs veh, CACNA2D3 / RFU, DTX4 / Fold change vs veh, DTX4 / RFU, TFCP2 / Fold change vs veh, TFCP2 / RFU, GMCL1 /// GMCL1P1 / Fold change vs veh, GMCL1 /// GMCL1P1 / RFU, AEBP2 / Fold change vs veh, AEBP2 / RFU, SNHG1 /// SNORD22 /// SNORD25 /// SNORD26 /// SNORD27 /// SNORD28 /// SNORD29 /// SNORD31 / Fold change vs veh, SNHG1 /// SNORD22 /// SNORD25 /// SNORD26 /// SNORD27 /// SNORD28 /// SNORD29 /// SNORD31 / Fold change (Aza/veh), C12orf56 (ProbeSet 11735607_a_at) / Fold change (ACY-1035/veh), C12orf56 (ProbeSet 11735607_a_at) / Fold change (Aza/veh), FGFR1OP (ProbeSet 11751329_s_at) / Fold change (ACY-1035/veh), FGFR1OP (ProbeSet 11751329_s_at) / Fold change (Aza/veh), VPS36 (ProbeSet 11739960_a_at) / Fold change (ACY-1035/veh), VPS36 (ProbeSet 11739960_a_at) / RFU SYPL1 (11715823_x_at) / Fold change /veh SYPL1 (11715823_x_at) / RFU IGFBP7 (11715501_s_at) / Fold change /veh IGFBP7 (11715501_s_at) / RFU REEP3 (11722064_at) / Fold change /veh REEP3 (11722064_at) / RFU IGLL1 (11728026_x_at) / Fold change /veh IGLL1 (11728026_x_at): dose or concentration left out as unconfirmed. As to conditions: ProbeSet 11724763_s_at; LIST D.

Consider `Nc1ccc(-c2cccs2)cc1NC(=O)c1ccc2c(c1)cc(C1CC1)n2CCN1CCOCC1` [ACY-1035], for which the “Fold change vs veh, DEPTOR” value was found to be 0.84.
